Measurements as given in a melting point compilation (Tetko et al.; mined from patent text by program, amines drawn as free bases though some values may be those of a salt).

Point of comparison: Clc1ccc(C2NCCc3c2[nH]c2ccccc32)cc1 (configuration not stated), melting point 161 °C. Against it:
- CCOc1ccc(-n2c(NCc3ccc(Br)cc3)nc3ccc(Cl)cc32)cc1 — lower, 140 to 141 °C
- COc1cc2c(c(OC(C)=O)c1)C1CCC3(C)C(=O)C(O)CC3C1CC2 (configuration not stated) — higher, 228 to 231 °C
- COC(=O)c1ccnc(N2CCN(Cc3ccccn3)C2=O)c1 — lower, 100 to 102 °C
- Cc1[nH]c(=O)c(C#N)cc1-c1ccncc1 — higher, > 300 °C
- C=CC(=O)N1CC[C@H]2[C@H]1[C@@H](CCC)C(=O)N2S(C)(=O)=O (relative stereo) — higher, 177 to 181 °C
- N#Cc1cnccc1O — higher, 234 to 236 °C
- CCOC(=O)c1cccn2cc(C(C)(C)C)nc12 — lower, 72 to 74 °C
- COC(=O)[C@H](O)[C@@H](NC(=O)c1ccccc1)c1ccccc1 — higher, 184 to 185 °C
- Fc1cc(Cl)c2ccc(C(F)(F)F)cc2n1 — lower, 94 to 95 °C
- Nc1c(OCC(O)CN2CCC(COc3ccccc3)CC2)cccc1[N+](=O)[O-] (configuration not stated) — lower, 117 to 118 °C
- COc1cc(N)c(Cl)cc1C(=O)NCC1CCN(CCCCCOCc2ccc(Cl)cc2)CC1 — lower, 131 to 132 °C
- CCC(Oc1cccc(C)c1C)C1=NCCN1C=Nc1ccccn1 (configuration not stated) — lower, 108 to 110 °C
- CCc1nn(C2CN(C(C)C)C2)c(C(N)=O)c1[N+](=O)[O-] — lower, 153 to 156 °C
- COc1cc(CN2C(=N)c3cc(-c4ccc(F)cc4F)ccc3S2(=O)=O)ccn1 — higher, 173 °C
- COc1c(CN2CCNC2=C[N+](=O)[O-])cc(C)nc1[N+](=O)[O-] — higher, 177 to 181 °C
- O=C(Nc1cc2ncc(CN3CCCC3)cc2cc1F)c1ccc(Br)cc1F — lower, 149 to 151 °C
- COc1cc2c(cc1OC)C(C(S)(C#N)c1ccccc1)=NCC2 (configuration not stated) — not separable, 160 to 161 °C
- BrCc1nc2cc(Br)ccc2s1 — lower, 107 °C
- O=C(c1ccc(O)cc1)c1c(F)c(F)c(F)c(F)c1F — lower, 138 to 140 °C
- COc1ccc2c(C3=CCN(C[C@H](O)COc4cccc5[nH]ccc45)CC3)c[nH]c2c1 — lower, 155 to 160 °C
- Cn1cc2cc3ncc(-c4ccc(Cl)s4)nc3cc2n1 — higher, 222 to 224 °C
- CC(C)(C)c1cc(CCC(=O)NNC(=O)C=Cc2ccc(Cl)cc2)cc(C(C)(C)C)c1O — higher, 276 to 277 °C
- CC(C)(C)OC(=O)n1ccc2cc(-c3ccccc3)ccc21 — lower, 105 to 106 °C
- Nc1ccc2c(c1)C(=Cc1cccs1)c1ccccc1-2 — lower, 143 °C
- c1ccc(-c2cn3c(n2)sc2cnccc23)cc1 — higher, 183 to 185 °C
- C=CC(C)(C)C(=O)C(Oc1ccc(Cl)cc1)n1ccnc1 (configuration not stated) — lower, 72 to 74 °C
- CCCCCCCCCCCCSCCCc1cc(C(C)(C)C)c(O)c(C(C)(C)C)c1 — lower, 26 to 27 °C
- Cc1noc(-c2cc3c4ccccc4n(C)c3s2)n1 — higher, 200 to 201 °C
- Cc1cc(C)c(C(CO)c2ccccc2)c(O)c1C (configuration not stated) — lower, 103 to 104 °C
- O=C(O)C(=O)c1ccc(OCCCCOc2ccccc2)cc1 — lower, 103 to 105 °C
- CC(=O)Nc1ccc(OCCOCCOc2ncc(Cl)cn2)cc1 — lower, 110 °C
- CCCCc1ccc(CCCCCCC(=O)O)cc1 — lower, 32 to 33 °C
- CC12C=CC(C1)C(C(N)=O)C2(C(N)=O)c1cccc(Br)c1 (configuration not stated) — lower, 111 to 113 °C
- CC1(C)CCC(C)(C)c2cc(-c3cc(-c4ccc(C(=O)OCc5ccccc5)cc4)ccc3O)ccc21 — lower, 90 to 91 °C
- CCCCN(CC)c1cc(C)nc(Oc2c(C)cc(Cl)cc2C)c1C — higher, 177 to 178 °C
- O=c1ncc(Cl)cn1COCc1ccccc1 — lower, 125 °C
- COC(=O)CCc1ccc(N2CCN(C34CCC(C#N)(CC3)CC4)C2=O)cc1 — higher, 195 to 197 °C
- Oc1cc(Br)c2oc(-c3ccc(O)c(F)c3F)nc2c1 — higher, 258 to 260 °C
- CCCCCCCCCCCCCCCCC(COC(C)=O)(COC(C)=O)NC(C)=O — lower, 84 to 86 °C
- CCOCc1nc2c(N)nc3ccccc3c2n1CCCC(C)=NO — higher, 220 to 223 °C
- CN(C)c1ccc(C(=O)c2cccc(N)c2)cc1 — lower, 110 °C
